Source: patent publication US20160108027A1, “SUBSTITUTED BENZOXAZOLES” (BAYER PHARMA AKTIENGESELLSCHAFT, priority 2013, published 2016)
pIC50: −log10 of the molar value.

Experiments:
thrombin [1] = target: T1, thrombin (Homo sapiens, UniProt P00734); assay: Measurement of the thrombin inhibition in buffer; type: biochemical; details: human thrombin 0.06 nmol/l in Tris buffer pH 7.4, 22° C., substrate Boc-Asp(OBzl)-Pro-Arg-AMC; in some cases means of individual determinations
Procedure, shortened: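 Compound pre-incubated 15 min at 22° C with 0.06 nmol/l human thrombin in 50 mmol/l Tris, 100 mmol/l NaCl, 0.1% BSA, pH 7.4, then 5 μmol/l Boc-Asp(OBzl)-Pro-Arg-AMC added for 30 min. AMC fluorescence read at 360/460 nm against DMSO controls; IC50 from concentration–activity curves.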

thrombin [2] = target: T1, thrombin; assay: Determination of the thrombin-inhibitory activity in plasma samples (ecarin-activated); type: biochemical; details: citrate plasma, ecarin activation, fluorogenic thrombin substrate; in some cases means of individual determinations
Procedure, shortened: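 Citrate plasma activated with ecarin (final 20 mU per reaction) in Ca buffer (Hepes, NaCl, CaCl2, PEG), with compound diluted from DMSO into water. Fluorogenic thrombin substrate at final 50 μmol/l; fluorescence (ex 360/em 465 nm) read each minute for 20 minutes, with buffer-only unstimulated control.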

Compound	pIC50 (thrombin [1])	pIC50 (thrombin [2])
COc1cc(C(=O)N2CCCC2(C)C(=O)N2CC(F)C2)cc2nc(NCc3cc(Cl)ccn3)oc12 (single isomer, unassigned) [Example 17, (2-{[(4-Chloropyridin-2-yl)methyl]amino}-7-methoxy-1,3-benzoxazol-5-yl){2-[(3-fluoroazetidin-1-yl)carbonyl]-2-methylpyrrolidin-1-yl}methanone]	7.48	7.28
COc1cc(C(=O)N2CC(C)NC(=O)C2CC#N)cc2nc(NCc3cc(Cl)ccn3)oc12 (single isomer, unassigned) [Example 92, {1-[(2-{[(4-Chloropyridin-2-yl)methyl]amino}-7-methoxy-1,3-benzoxazol-5-yl)carbonyl]-5-methyl-3-oxopiperazin-2-yl}acetonitrile]	7.02	6.83
COc1cc(C(=O)N2CC(C)(C)OCC2(C)CO)cc2nc(NCc3cc(Cl)ccn3)oc12 (racemic) [Example 38, (2-{[(4-Chloropyridin-2-yl)methyl]amino}-7-methoxy-1,3-benzoxazol-5-yl) [5-(hydroxymethyl)-2,2,5-trimethylmorpholin-4-yl]methanone]	7.89	7.66
COc1cc(C(=O)N2CC(C)OCC2C2CC(O)C2)cc2nc(NCc3cc(Cl)ccn3)oc12 (single isomer, unassigned) [Example 49, (2-{[(4-Chloropyridin-2-yl)methyl]amino}-7-methoxy-1,3-benzoxazol-5-yl) [5-(3-hydroxycyclobutyl)-2-methylmorpholin-4-yl]methanone]	7.62	7.28
COc1cc(C(=O)N2CC(C)OCC2C2CC(O)C2)cc2nc(NCc3cc(Cl)ccn3)oc12 (single isomer, unassigned) [Example 50, (2-{[(4-Chloropyridin-2-yl)methyl]amino}-7-methoxy-1,3-benzoxazol-5-yl) [5-(3-hydroxycyclobutyl)-2-methylmorpholin-4-yl]methanone]	7.92	7.55
COCC1C(=O)N2CCC2CN1C(=O)c1cc(OC)c2oc(NCc3cc(Cl)ccn3)nc2c1 (single isomer, unassigned) [Example 74, 4-[(2-{[(4-Chloropyridin-2-yl)methyl]amino}-7-methoxy-1,3-benzoxazol-5-yl)carbonyl]-3-(methoxymethyl)-1,4-diazabicyclo[4.2.0]octan-2-one]	7.49	7.25
COc1cc(C(=O)N2C[C@H](OC3CC3)C[C@H]2CO)cc2nc(NC(C)c3cc(Cl)ccn3)oc12 (stereo partly drawn) [Example 13, (2-{[1-(4-Chloropyridin-2-yl)ethyl]amino}-7-methoxy-1,3-benzoxazol-5-yl)[(2S,4R)-4-(cyclopropyloxy)-2-(hydroxymethyl)pyrrolidin-1-yl]methanone]	7.68	7.51
[2H]C([2H])(C)O[C@@H]1CC(CC#N)N(C(=O)c2cc(OC)c3oc(NCc4cc(Cl)ccn4)nc3c2)C1 (single isomer, unassigned) [Example 9]	8.01	7.89
COc1cc(C(=O)N2CC(C)(C)OCC2CF)cc2nc(NCc3cc(Cl)ccn3)oc12 (racemic) [Example 42, (2-{[(4-Chloropyridin-2-yl)methyl]amino}-7-methoxy-1,3-benzoxazol-5-yl) [5-(fluoromethyl)-2,2-dimethylmorpholin-4-yl]methanone]	7.57	7.47
[2H]C([2H])(C)O[C@@H]1CC(CO)N(C(=O)c2cc(OC)c3oc(NC(C)c4cc(Cl)ccn4)nc3c2)C1 (stereo partly drawn) [Example 97, (2-{[1-(4-Chloropyridin-2-yl)ethyl]amino}-7-methoxy-1,3-benzoxazol-5-yl)[(4R)-4-[(1,1-^2H2)ethyloxy]-2-(hydroxymethyl)pyrrolidin-1-yl]methanone]	7.77	7.57
COc1cc(C(=O)N2CC(C)(CCO)OCC2(C)C)cc2nc(NCc3cc(Cl)ccn3)oc12 (racemic) [Example 32, (2-{[(4-Chloropyridin-2-yl)methyl]amino}-7-methoxy-1,3-benzoxazol-5-yl) [2-(2-hydroxyethyl)-2,5,5-trimethylmorpholin-4-yl]methanone]	7.92	7.44
COc1cc(C(=O)N2CC(C)(C)OCC2CC(C)O)cc2nc(NCc3cc(Cl)ccn3)oc12 (single isomer, unassigned) [Example 63, (2-{[(4-Chloropyridin-2-yl)methyl]amino}-7-methoxy-1,3-benzoxazol-5-yl) [5-(2-hydroxypropyl)-2,2-dimethylmorpholin-4-yl]methanone]	7.96	7.70
CCC1C(=O)NC(C)CN1C(=O)c1cc(OC)c2oc(NCc3cc(Cl)ccn3)nc2c1 (single isomer, unassigned) [Example 81, 4-[(2-{[(4-Chloropyridin-2-yl)methyl]amino}-7-methoxy-1,3-benzoxazol-5-yl)carbonyl]-3-ethyl-6-methylpiperazin-2-one]	7.92	7.49
COc1cc(C(=O)N2CC(C)(CCO)OCC2CF)cc2nc(NCc3cc(Cl)ccn3)oc12 (stereo not shown) [Example 21, (2-{[(4-Chloropyridin-2-yl)methyl]amino}-7-methoxy-1,3-benzoxazol-5-yl) [5-(fluoromethyl)-2-(2-hydroxyethyl)-2-methylmorpholin-4-yl]methanone]	8.00	7.26
COc1cc(C(=O)N2CC(C)OCC2C2CC(O)C2)cc2nc(NCc3cc(Cl)ccn3)oc12 (single isomer, unassigned) [Example 47, (2-{[(4-Chloropyridin-2-yl)methyl]amino}-7-methoxy-1,3-benzoxazol-5-yl) [5-(3-hydroxycyclobutyl)-2-methylmorpholin-4-yl]methanone]	7.96	7.62
COc1cc(C(=O)N2CC(C)OCC2C2CC(O)C2)cc2nc(NCc3cc(Cl)ccn3)oc12 (single isomer, unassigned) [Example 52, (2-{[(4-Chloropyridin-2-yl)methyl]amino}-7-methoxy-1,3-benzoxazol-5-yl) [5-(3-hydroxycyclobutyl)-2-methylmorpholin-4-yl]methanone]	7.55	7.47
COc1cc(C(=O)N2CC(C)OCC2C2CC(O)C2)cc2nc(NCc3cc(Cl)ccn3)oc12 (single isomer, unassigned) [Example 51, (2-{[(4-Chloropyridin-2-yl)methyl]amino}-7-methoxy-1,3-benzoxazol-5-yl) [5-(3-hydroxycyclobutyl)-2-methylmorpholin-4-yl]methanone]	8.10	7.77
COc1cc(C(=O)N2CC(C)(CC(C)O)OC[C@H]2C)cc2nc(NC(C)c3cc(Cl)ccn3)oc12 (stereo partly drawn) [Example 26, (2-{[1-(4-Chloropyridin-2-yl)ethyl]amino}-7-methoxy-1,3-benzoxazol-5-yl)[(5R)-2-(2-hydroxypropyl)-2,5-dimethylmorpholin-4-yl]methanone]	8.21	7.36
COc1cc(C(=O)N2CC(C)(C)OCC2C2(O)CC2)cc2nc(NCc3cc(Cl)ccn3)oc12 (single isomer, unassigned) [Example 94, (2-{[(4-Chloropyridin-2-yl)methyl]amino}-7-methoxy-1,3-benzoxazol-5-yl) [5-(1-hydroxycyclopropyl)-2,2-dimethylmorpholin-4-yl]methanone]	7.74	7.55
CCO[C@@H]1CC(CO)N(C(=O)c2cc(OC)c3oc(NC(C)c4cc(Cl)ccn4)nc3c2)C1 (stereo partly drawn) [Example 4, (2-{[1-(4-Chloropyridin-2-yl)ethyl]amino}-7-methoxy-1,3-benzoxazol-5-yl)[(4R)-4-ethoxy-2-(hydroxymethyl)pyrrolidin-1-yl]methanone]	7.41	7.18
COc1cc(C(=O)N2CCCC2(C)C(=O)N2CCOCC2)cc2nc(NCc3cc(Cl)ccn3)oc12 (single isomer, unassigned) [Example 18, (2-{[(4-Chloropyridin-2-yl)methyl]amino}-7-methoxy-1,3-benzoxazol-5-yl) [2-methyl-2-(morpholin-4-ylcarbonyl)pyrrolidin-1-yl]methanone]	7.77	7.57
COCC1COC(C)(CCO)CN1C(=O)c1cc(OC)c2oc(NCc3cc(Cl)ccn3)nc2c1 (single isomer, unassigned) [Example 31]	7.96	7.47
COc1cc(C(=O)N2CC(C)OCC2C2CC(O)C2)cc2nc(NCc3cc(Cl)ccn3)oc12 (stereo not shown) [Example 46, (2-{[(4-Chloropyridin-2-yl)methyl]amino}-7-methoxy-1,3-benzoxazol-5-yl) [5-(3-hydroxycyclobutyl)-2-methylmorpholin-4-yl]methanone]	7.85	7.64
